Toxic doses and inconclusive results are not listed. Rule for the calls: active = survival T/C of 150% or more; inactive = T/C below 125% in these data.
System: CD2F1 mice, L1210 leukemia ip, survival T/C
Assay: NCI In Vivo Anticancer Drug Screen. Data for tumor model L1210 Leukemia (intraperitoneal) in CD2F1 (CDF1) mice
Settings: higher = longer survival
How it was run: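 Ratio T/C, where T is the treated-group value and C the vehicle-dosed control value, from mice implanted with a transplantable tumor.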

[1] = endpoint: mean survival time, dose: 100.0 mg/kg/injection, schedule: Q01DX009 (ip), vehicle: saline
[2] = endpoint: mean survival time, dose: 200.0 mg/kg/injection, schedule: Q01DX009 (ip), vehicle: saline
[3] = endpoint: mean survival time, dose: 400.0 mg/kg/injection, schedule: Q01DX009 (ip), vehicle: saline
[4] = endpoint: mean survival time, dose: 50.0 mg/kg/injection, schedule: Q04DX002 (ip), vehicle: saline with Tween-80
[5] = endpoint: mean survival time, dose: 100.0 mg/kg/injection, schedule: Q04DX002 (ip), vehicle: saline with Tween-80
[6] = endpoint: mean survival time, dose: 100.0 mg/kg/injection, schedule: Q04DX003 (ip), vehicle: saline with Tween-80
[7] = endpoint: mean survival time, dose: 400.0 mg/kg/injection, schedule: Q04DX003 (ip), vehicle: saline with Tween-80
[8] = endpoint: mean survival time, dose: 100.0 mg/kg/injection, schedule: Q01DX009 (ip), vehicle: saline with Tween-80
[9] = endpoint: mean survival time, dose: 200.0 mg/kg/injection, schedule: Q01DX009 (ip), vehicle: saline with Tween-80
[10] = endpoint: mean survival time, dose: 200.0 mg/kg/injection, schedule: Q04DX003 (ip), vehicle: saline with Tween-80
[11] = endpoint: mean survival time, dose: 400.0 mg/kg/injection, schedule: Q01DX009 (ip), vehicle: saline with Tween-80
[12] = endpoint: mean survival time, dose: 50.0 mg/kg/injection, schedule: Q01DX009 (ip), vehicle: saline with Tween-80
[13] = endpoint: mean survival time, dose: 100.0 mg/kg/injection, schedule: Q01DX001 (ip), vehicle: saline with Tween-80
[14] = endpoint: mean survival time, dose: 200.0 mg/kg/injection, schedule: Q01DX001 (ip), vehicle: saline with Tween-80
[15] = endpoint: mean survival time, dose: 400.0 mg/kg/injection, schedule: Q01DX001 (ip), vehicle: saline with Tween-80
[16] = endpoint: mean survival time, dose: 200.0 mg/kg/injection, schedule: Q04DX002 (ip), vehicle: saline with Tween-80
[17] = endpoint: mean survival time, dose: 400.0 mg/kg/injection, schedule: Q04DX002 (ip), vehicle: saline with Tween-80

Measured: T/C

Cc1ccnc(NS(=O)(=O)c2ccc(N)cc2)n1
inactive: [1] 100 % of control | [2] 96 % of control | [3] 97 % of control

N#CC(C#N)CN(C1=NCCO1)c1cccc2c1CCCC2
inactive: endpoint: mean survival time, dose: 25.0 mg/kg/injection, schedule: Q04DX002 (ip), vehicle: saline with Tween-80 94 % of control | [4] 94 % of control | [5] 98 % of control | [6] 89 % of control | [7] 89 % of control

COc1ccc(OC)c(NC(=O)NNC(=O)c2ccc(Cl)cc2)c1
inactive: [8] 90 % of control

O=[N+]([O-])c1ccc2c(c1)C(Br)c1cc(Br)ccc1-2 (centres undefined)
inactive: [8] 93 % of control | [6] 100 % of control | [9] 88 % of control | [10] 100 % of control | [11] 90 % of control | [7] 92 % of control

CCCCCCCCCCCC1CCCC(C)N1 (centres undefined)
inactive: [4] 98 % of control

CC(=O)COc1ccccc1NC(C)=O
inactive: [6] 91 % of control | [10] 102 % of control | [7] 91 % of control

CCCCCCCCCCCCCCCC(=O)N(CCCN)CCCN(CCCN)C(=O)CCCCCCCCCCCCCCC
inactive: endpoint: mean survival time, dose: 25.0 mg/kg/injection, schedule: Q01DX009 (ip), vehicle: saline with Tween-80 97 % of control | [12] 89 % of control

O=C(OCC#CC#CCOC(=O)c1cccc2ccccc12)c1cccc2ccccc12
inactive: endpoint: mean survival time, dose: 100.0 mg/kg/injection, schedule: Q04DX003 (ip), vehicle: Klucel (hydroxypropylcellulose) (HPC) 100 % of control | endpoint: mean survival time, dose: 200.0 mg/kg/injection, schedule: Q04DX003 (ip), vehicle: Klucel (hydroxypropylcellulose) (HPC) 102 % of control | endpoint: mean survival time, dose: 400.0 mg/kg/injection, schedule: Q04DX003 (ip), vehicle: Klucel (hydroxypropylcellulose) (HPC) 96 % of control

CCOC(=O)/C=C(\C)N1CCCCC1
inactive: endpoint: mean survival time, dose: 100.0 mg/kg/injection, schedule: Q04DX003 (ip), vehicle: saline 92 % of control | endpoint: mean survival time, dose: 200.0 mg/kg/injection, schedule: Q04DX003 (ip), vehicle: saline 91 % of control | endpoint: mean survival time, dose: 400.0 mg/kg/injection, schedule: Q04DX003 (ip), vehicle: saline 94 % of control

C=C1CN(C(=O)NCCCl)C1
inactive: [13] 100 % of control | [14] 100 % of control | [15] 97 % of control

COc1ccc(CC(N)C(=O)O)cc1N(CCCl)CCCl (centres undefined)
inactive: endpoint: mean survival time, dose: 3.2 mg/kg/injection, schedule: Q01DX001 (ip), vehicle: carboxymethylcellulose (CMC) 122 % of control

CN(C)Nc1cc(N)c(N=Nc2ccccc2)c(=O)[nH]1
inactive: endpoint: mean survival time, dose: 100.0 mg/kg/injection, schedule: Q01DX001 (ip), vehicle: Klucel (hydroxypropylcellulose) (HPC) 107 % of control | endpoint: mean survival time, dose: 200.0 mg/kg/injection, schedule: Q01DX001 (ip), vehicle: Klucel (hydroxypropylcellulose) (HPC) 97 % of control | endpoint: mean survival time, dose: 400.0 mg/kg/injection, schedule: Q01DX001 (ip), vehicle: Klucel (hydroxypropylcellulose) (HPC) 117 % of control

CCCCCCCCC(C(O)c1ccccc1)C(O)(C(F)(F)F)C(F)(F)F (centres undefined)
inactive: [6] 98 % of control | [10] 102 % of control | [7] 104 % of control

O=S(=O)(Nc1ccc2c3c(cccc13)CC2)c1ccccc1
inactive: [6] 96 % of control | [10] 96 % of control | [7] 98 % of control

CCOC(=O)Nc1ccc(C(=O)O)c(O)c1
inactive: [6] 96 % of control | [10] 96 % of control | [7] 100 % of control

CCCCOP(=O)(OCCCC)Oc1cccc2ccccc12
inactive: [5] 91 % of control | [16] 95 % of control | [17] 106 % of control

CC1(C)N=C(N)N=C(N)N1c1cccc(CCCCc2ccc(S(=O)(=O)F)cc2Cl)c1
inactive: endpoint: mean survival time, dose: 12.5 mg/kg/injection, schedule: Q01DX009 (ip), vehicle: saline sonified 87 % of control | endpoint: mean survival time, dose: 12.5 mg/kg/injection, schedule: Q04DX003 (ip), vehicle: saline sonified 96 % of control | endpoint: mean survival time, dose: 25.0 mg/kg/injection, schedule: Q01DX009 (ip), vehicle: saline sonified 89 % of control | endpoint: mean survival time, dose: 25.0 mg/kg/injection, schedule: Q04DX003 (ip), vehicle: saline sonified 96 % of control | endpoint: mean survival time, dose: 50.0 mg/kg/injection, schedule: Q04DX003 (ip), vehicle: saline sonified 92 % of control

OCC(O)COCc1ccccc1 (centres undefined)
inactive: [1] 94 % of control | [2] 94 % of control | [3] 96 % of control

O=NN(CCCl)C(=O)Nc1ccc(Br)cn1
inactive: endpoint: mean survival time, dose: 20.0 mg/kg/injection, schedule: Q01DX001 (ip), vehicle: carboxymethylcellulose (CMC) 115 % of control

COC(=O)CC(=O)NC(C)CC1CNc2ccccc21 (centres undefined)
inactive: [6] 103 % of control | [10] 103 % of control | [7] 97 % of control

COc1cc2c(cc1C(C)C)CCC1C(C)(C(=O)O)CCCC21C (centres undefined)
inactive: [13] 100 % of control | endpoint: mean survival time, dose: 100.0 mg/kg/injection, schedule: Q01DX009 (ip), vehicle: saline sonified 95 % of control | [14] 97 % of control | endpoint: mean survival time, dose: 200.0 mg/kg/injection, schedule: Q01DX009 (ip), vehicle: saline sonified 97 % of control | [15] 102 % of control | endpoint: mean survival time, dose: 400.0 mg/kg/injection, schedule: Q01DX009 (ip), vehicle: saline sonified 96 % of control

COc1cc(OC)c2c[n+](C)c3c4cc(OC)c(OC)cc4ccc3c2c1
inactive: endpoint: mean survival time, dose: 12.5 mg/kg/injection, schedule: Q01DX009 (ip), vehicle: saline 102 % of control | endpoint: mean survival time, dose: 25.0 mg/kg/injection, schedule: Q01DX009 (ip), vehicle: saline 102 % of control | endpoint: mean survival time, dose: 50.0 mg/kg/injection, schedule: Q01DX009 (ip), vehicle: saline 98 % of control

O=C(Nc1cccc(Cl)c1)C(c1ccccc1)c1ccccc1
inactive: [5] 95 % of control | [16] 87 % of control | [17] 91 % of control

CN(C)C(=O)Nc1cc(Cl)ccc1Cl
inactive: [5] 97 % of control | [16] 108 % of control | [17] 120 % of control

C[n+]1ccc2c(Br)cccc2c1
inactive: endpoint: mean survival time, dose: 75.0 mg/kg/injection, schedule: Q01DX001 (ip), vehicle: saline 101 % of control

CC(=O)OCCOCCOCc1ccccc1
inactive: endpoint: mean survival time, dose: 100.0 mg/kg/injection, schedule: Q01DX001 (ip), vehicle: other 96 % of control | endpoint: mean survival time, dose: 200.0 mg/kg/injection, schedule: Q01DX001 (ip), vehicle: other 102 % of control | endpoint: mean survival time, dose: 400.0 mg/kg/injection, schedule: Q01DX001 (ip), vehicle: other 98 % of control

O=C1CC2(C(=O)N1CN1CCOCC1)c1ccccc1-c1ccccc12
inactive: endpoint: median survival time, dose: 25.0 mg/kg/injection, schedule: Q01DX009 (ip), vehicle: Klucel (hydroxypropylcellulose) (HPC) 103 % of control | endpoint: median survival time, dose: 50.0 mg/kg/injection, schedule: Q01DX009 (ip), vehicle: Klucel (hydroxypropylcellulose) (HPC) 102 % of control | endpoint: median survival time, dose: 100.0 mg/kg/injection, schedule: Q01DX009 (ip), vehicle: Klucel (hydroxypropylcellulose) (HPC) 96 % of control | endpoint: median survival time, dose: 200.0 mg/kg/injection, schedule: Q01DX009 (ip), vehicle: Klucel (hydroxypropylcellulose) (HPC) 100 % of control | endpoint: median survival time, dose: 400.0 mg/kg/injection, schedule: Q01DX009 (ip), vehicle: Klucel (hydroxypropylcellulose) (HPC) 107 % of control

CCOc1ccccc1NCN1C(=O)c2ccccc2C1=O
inactive: [4] 95 % of control | [5] 91 % of control | [16] 95 % of control | [17] 88 % of control

Clc1ccc(Sc2ccc(Cl)cc2)cc1
inactive: [13] 94 % of control | [8] 98 % of control | [6] 91 % of control | [14] 108 % of control | [9] 102 % of control | [10] 91 % of control | [15] 91 % of control | [11] 98 % of control

COC(c1ccccc1)C(C)O (centres undefined)
inactive: [12] 100 % of control | [8] 100 % of control | [9] 95 % of control

Nc1nc2c(C(=O)N3CCCC3)nnn2c2ccccc12
inactive: endpoint: median survival time, dose: 6.25 mg/kg/injection, schedule: Q01DX009 (ip), vehicle: saline with Tween-80 100 % of control | endpoint: median survival time, dose: 12.5 mg/kg/injection, schedule: Q01DX009 (ip), vehicle: saline with Tween-80 98 % of control | endpoint: median survival time, dose: 25.0 mg/kg/injection, schedule: Q01DX009 (ip), vehicle: saline with Tween-80 97 % of control | endpoint: median survival time, dose: 50.0 mg/kg/injection, schedule: Q01DX009 (ip), vehicle: saline with Tween-80 95 % of control | endpoint: median survival time, dose: 100.0 mg/kg/injection, schedule: Q01DX009 (ip), vehicle: saline with Tween-80 95 % of control

CC1(C)COC(CCc2ccccc2)=N1
inactive: [5] 108 % of control | [6] 104 % of control | [16] 101 % of control | [10] 93 % of control | [17] 101 % of control | [7] 86 % of control

O=C1CSC(=S)N1Cc1ccccc1
inactive: [6] 101 % of control | [10] 97 % of control | [7] 97 % of control

O=C(/C=C/c1ccccc1Cl)c1ccccc1[N+](=O)[O-]
inactive: [8] 89 % of control | [9] 94 % of control | [11] 95 % of control

From PubChem BioAssay AID256 (DTP/NCI, 2004)
